# In patent publication US8962616B2, “Heterocyclic substituted hexahydropyrano[3,4-d][1,3]thiazin-2-amine compounds” (Pfizer Inc., priority 2012, dated 2015):
# Counter-ions that a name gives are not always drawn.
# Assays:
# [1] = system: H4 human neuroglioma cells over-expressing the wild-type human APP695; experiment: sAPPβ Whole-Cell Assay (in vitro sAPPb assay, ELISA); format: cell-based; details: 18 hours, geometric mean of 2-7 determinations (values marked b: single determination)
# Procedure: Whole Cell-Free Assay (In Vitro sAPPb Assay):
# H4 human neuroglioma cells over-expressing the wild-type human APP695 are treated for 18 hours with compound in a final concentration 1% DMSO. sAPPβ levels are measured using TMB-ELISA with capture APP N-terminal antibody (Affinity BioReagents, OMA1-03132), wild-type sAPPβ specific reporter p192 (Elan), and tertiary anti rabbit-HRP (GE Healthcare).
# [2] = target: BACE2 enzyme (Homo sapiens (Human), UniProt Q9Y5Z0); experiment: BACE2 Cell-free Assay (fluorescence polarization, synthetic substrate); format: biochemical; details: single determination
# BACE2 enzyme, sequence (Q9Y5Z0 63-518): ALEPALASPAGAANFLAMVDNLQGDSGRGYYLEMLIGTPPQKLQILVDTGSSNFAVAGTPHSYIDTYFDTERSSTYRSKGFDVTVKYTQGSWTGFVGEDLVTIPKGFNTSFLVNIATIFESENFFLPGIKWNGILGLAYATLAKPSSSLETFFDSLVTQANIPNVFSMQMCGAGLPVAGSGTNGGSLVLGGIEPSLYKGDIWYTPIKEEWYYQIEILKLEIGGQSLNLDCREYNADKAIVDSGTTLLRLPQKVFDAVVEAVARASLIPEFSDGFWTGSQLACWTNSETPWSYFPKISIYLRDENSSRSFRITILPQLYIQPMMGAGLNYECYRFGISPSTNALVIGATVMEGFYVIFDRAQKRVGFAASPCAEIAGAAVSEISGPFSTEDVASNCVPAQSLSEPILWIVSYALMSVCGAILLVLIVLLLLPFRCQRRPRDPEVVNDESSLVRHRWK
# Procedure: This assay measures the inhibition of the BACE2 enzyme as it cleaves a non-native peptide. A synthetic substrate that can be cleaved by BACE2 having N-terminal biotin and made fluorescent by the covalent attachment of Oregon Green at the Cys residue is used to assay BACE2 activity in the presence or absence of the inhibitory compounds. The substrate is Biotin-[…]-C(Oregon green)-KK-OH. The BACE2 enzyme is available from Enzo Life Sciences (Cat # BML-SE550). Compounds are incubated in a ½ log dose response curve from a top concentration of 100 μM with BACE2 enzyme and the biotinylated fluorescent peptide in 384-well black plates (Thermo Scientific #4318). BACE2 is at a final concentration of 2.5 nM with a final concentration of peptide substrate of 150 nM in a reaction volume of 30 μL assay buffer (100 mM Sodium Acetate, pH 4.5 (brought to pH with acetic acid), and 0.001% Tween-20). Plates are covered and incubated for 3 hours at 37° C. The reaction is stopped with the addition of 30 μL of 1.5 μM Streptavidin (Pierce, #21125). After a 10 minute incubation at room temperature, plates are read on a PerkinElmer Envision for fluorescent polarization (Ex485 nm/Em530 nm). The activity of the beta-secretase enzyme is detected by changes in the fluorescence polarization that occur when the substrate is cleaved by the enzyme.
# [3] = target: BACE1 enzyme (Homo sapiens (Human), UniProt P56817); experiment: BACE1 Cell-Free Assay (fluorescence polarization, synthetic APP substrate); format: biochemical; details: geometric mean of 2-7 determinations (values marked b: single determination)
# BACE1 enzyme, sequence (P56817 46-457): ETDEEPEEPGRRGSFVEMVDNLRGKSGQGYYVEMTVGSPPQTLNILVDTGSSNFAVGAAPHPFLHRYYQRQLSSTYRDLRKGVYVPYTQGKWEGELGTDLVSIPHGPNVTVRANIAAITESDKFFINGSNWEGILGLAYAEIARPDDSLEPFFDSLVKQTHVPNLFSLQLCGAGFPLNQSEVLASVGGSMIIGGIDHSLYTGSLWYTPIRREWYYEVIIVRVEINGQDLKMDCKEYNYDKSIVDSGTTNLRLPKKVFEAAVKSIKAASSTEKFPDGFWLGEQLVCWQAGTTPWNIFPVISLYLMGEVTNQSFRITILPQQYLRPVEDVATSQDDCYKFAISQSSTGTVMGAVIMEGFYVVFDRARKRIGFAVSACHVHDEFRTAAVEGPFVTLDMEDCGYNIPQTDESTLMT
# From the text: This assay measures the inhibition of the beta-secretase enzyme as it cleaves a non-native peptide.
# A synthetic APP substrate that can be cleaved by beta-secretase having N-terminal biotin and made fluorescent by the covalent attachment of Oregon Green at the Cys residue is used to assay beta-secretase activity in the presence or absence of the inhibitory compounds. […] The BACE1 enzyme is affinity purified material from conditioned media of CHO-K1 cells that have been transfected with a soluble BACE construct (BACE1deltaTM96His). Compounds are incubated in a ½ log dose response curve from a top concentration of 100 μM with BACE1 enzyme and the biotinylated fluorescent peptide in 384-well black plates (Thermo Scientific #4318). BACE1 is at a final concentration of 0.1 nM with a final concentration of peptide substrate of 150 nM in a reaction volume of 30 μL assay buffer (100 mM sodium acetate, pH 4.5 (brought to pH with acetic acid), and 0.001% Tween-20). Plates are covered and incubated for 3 hours at 37° C. The reaction is stopped with the addition of 30 μL of 1.5 μM Streptavidin (Pierce, #21125). After a 10 minute incubation at room temperature, plates are read on a PerkinElmer Envision for fluorescent polarization (Ex485 nm/Em530 nm). The activity of the beta-secretase enzyme is detected by changes in the fluorescence polarization that occur when the substrate is cleaved by the enzyme.
SMILES,IC50 [1],IC50 [2],IC50 [3],IC50 ([1]; Homo sapiens)
"NC1=N[C@@]2(c3ccc(F)cc3F)CO[C@@H](c3ncco3)C[C@H]2CS1 [Example 1, (4aR,6R,8aS)-8a-(2,4-Difluorophenyl)-6-(1,3-oxazol-2-yl)-4,4-a,5,6,8,8a-hexahydropyrano[3,4-][1,3]thiazin-2-amine]",32 nM,619 nM,511 nM,
"Cn1ccc([C@H]2C[C@H]3CSC(N)=N[C@@]3(c3ccc(F)cc3F)CO2)n1 [Example 2, (4aR,6R,8aS)-8a-(2,4-Difluorophenyl)-6-(1-methyl-1H-pyrazol-3-yl)-4,4-a,5,6,8,8a-hexahydropyrano[3,4-][1,3]thiazin-2-amine]",17 nM,4740 nM,183 nM,
"Cn1nccc1[C@H]1C[C@H]2CSC(N)=N[C@@]2(c2ccc(F)cc2F)CO1 [Example 3, (4aR,6R,8aS)-8a-(2,4-Difluorophenyl)-6-(1-methyl-1H-pyrazol-5-yl)-4,4-a,5,6,8,8a-hexahydropyrano[3,4-d][1,3]thiazin-2-amine]",636 nM,,7780 nM,
"Cc1coc([C@H]2C[C@H]3CSC(N)=N[C@@]3(c3ccc(F)cc3F)CO2)n1 [Example 4, (4aR,6R,8aS)-8a-(2,4-Difluorophenyl)-6-(4-methyl-1,3-oxazol-2-yl)-4,4-a,5,6,8,8a-hexahydropyrano[3,4-][1,3]thiazin-2-amine]",4 nM,273 nM,84 nM,
"Cc1cnc([C@H]2C[C@H]3CSC(N)=N[C@@]3(c3ccc(F)cc3F)CO2)o1 [Example 5, (4aR,6R,8aS)-8a-(2,4-Difluorophenyl)-6-(5-methyl-1,3-oxazol-2-yl)-4,4-a,5,6,8,8a-hexahydropyrano[3,4-d][1,3]thiazin-2-amine]",23 nM,1150 nM,473 nM,
"C[C@H]1SC(N)=N[C@@]2(c3ccc(F)cc3F)CO[C@@H](c3ncco3)C[C@@H]12 [Example 6, (4R,4aR,6R,8aS)-8a-(2,4-Difluorophenyl)-4-methyl-6-(1,3-oxazol-2-yl)-4,4-a,5,6,8,8a-hexahydropyrano[3,4-][1,3]thiazin-2-amine]",32 nM,2370 nM,198 nM,
"Cn1cc([C@H]2C[C@H]3CSC(N)=N[C@@]3(c3ccc(F)cc3F)CO2)cn1 [Example 7, (4aR,6R,8aS)-8a-(2,4-Difluorophenyl)-6-(1-methyl-1H-pyrazol-4-yl)-4,4-a,5,6,8,8a-hexahydropyrano[3,4-][1,3]thiazin-2-amine]",5 nM,185 nM,,
"Cc1csc([C@H]2C[C@H]3CSC(N)=N[C@@]3(c3ccc(F)cc3F)CO2)n1 [Example 8, (4aR,6R,8aS)-8a-(2,4-Difluorophenyl)-6-(4-methyl-1,3-thiazol-2-yl)-4,4-a,5,6,8,8a-hexahydropyrano[3,4-][1,3]thiazin-2-amine]",27 nM,9720 nM,260 nM,
"Cc1nccc([C@H]2C[C@H]3CSC(N)=N[C@@]3(c3ccc(F)cc3F)CO2)n1 [Example 9, (4aR,6R,8aS)-8a-(2,4-Difluorophenyl)-6-(2-methylpyrimidin-4-yl)-4,4-a,5,6,8,8a-hexahydropyrano[3,4-][1,3]thiazin-2-amine]",28 nM,> 100000 nM,583 nM,
"Cc1nc([C@H]2C[C@H]3CSC(N)=N[C@@]3(c3ccc(F)cc3F)CO2)co1 [Example 11, (4aR,6R,8aS)-8a-(2,4-Difluorophenyl)-6-(2-methyl-1,3-oxazol-4-yl)-4,4-a,5,6,8,8a-hexahydropyrano[3,4-d][1,3]thiazin-2-amine, hydrochloride salt]",34 nM,2020 nM,316 nM,
"Cc1ccnc([C@H]2C[C@H]3CSC(N)=N[C@@]3(c3ccc(F)cc3F)CO2)n1 [Example 12, (4aR,6R,8aS)-8a-(2,4-Difluorophenyl)-6-(4-methylpyrimidin-2-yl)-4,4-a,5,6,8,8a-hexahydropyrano[3,4-][1,3]thiazin-2-amine]",50 nM,,1470 nM,
"NC1=N[C@@]2(c3ccc(F)cc3F)CO[C@@H](c3nnco3)C[C@H]2CS1 [Example 14, (4aR,6R,8aS)-8a-(2,4-Difluorophenyl)-6-(1,3,4-oxadiazol-2-yl)-4,4-a,5,6,8,8a-hexahydropyrano[3,4-][1,3]thiazin-2-amine]",196 nM,,2210 nM,
"Cc1nc([C@H]2C[C@H]3CSC(N)=N[C@@]3(c3ccc(F)cc3F)CO2)oc1C [Example 15, (4aR,6R,8aS)-8a-(2,4-Difluorophenyl)-6-(4,5-dimethyl-1,3-oxazol-2-yl)-4,4-a,5,6,8,8a-hexahydropyrano[3,4-d][1,3]thiazin-2-amine]",7 nM,2820 nM,112 nM,
"Cc1cc([C@H]2C[C@H]3CSC(N)=N[C@@]3(c3ccc(F)cc3F)CO2)on1 [Example 16, (4aR,6R,8aS)-8a-(2,4-Difluorophenyl)-6-(3-methyl-1,2-oxazol-5-yl)-4,4-a,5,6,8,8a-hexahydropyrano[3,4-][1,3]thiazin-2-amine]",3 nM,,59 nM,
"NC1=N[C@@]2(c3ccc(F)cc3F)CO[C@@H](c3ccncn3)C[C@H]2CS1 [Example 18, (4aR,6R,8aS)-8a-(2,4-difluorophenyl)-6-(pyrimidin-4-yl)-4,4a,5,6,8,8a-hexahydropyrano[3,4-d][1,3]thiazin-2-amine]",,695 nM,390 nM,28 nM
"NC1=N[C@@]2(c3ccc(F)cc3F)CO[C@@H](c3ccn(C4CC4)n3)C[C@H]2CS1 [Example 19, (4aR,6R,8aS)-6-(1-cyclopropyl-1H-pyrazol-3-yl)-8a-(2,4-difluorophenyl)-4,4a,5,6,8,8a-hexahydropyrano[3,4-d][1,3]thiazin-2-amine]",,,444 nM,
"NC1=N[C@@]2(c3ccc(F)cc3F)CO[C@@H](c3nc(C(F)(F)F)co3)C[C@H]2CS1 [Example 20, (4aR,6R,8aS)-8a-(2,4-difluorophenyl)-6-[4-(trifluoromethyl)-1,3-oxazol-2-yl]-4,4a,5,6,8,8a-hexahydropyrano[3,4-d][1,3]thiazin-2-amine]",,629 nM,467 nM,14 nM
"NC1=N[C@@]2(c3ccc(F)cc3F)CO[C@@H](c3ncccn3)C[C@H]2CS1 [Example 21, (4aR,6R,8aS)-8a-(2,4-difluorophenyl)-6-(pyrimidin-2-yl)-4,4a,5,6,8,8a-hexahydropyrano[3,4-d][1,3]thiazin-2-amine]",,3090 nM,983 nM,44 nM
"Cc1coc([C@H]2C[C@H]3[C@@H](C)SC(N)=N[C@@]3(c3ccc(F)cc3F)CO2)n1 [Example 22, (4R,4aR,6R,8aS)-8a-(2,4-difluorophenyl)-4-methyl-6-(4-methyl-1,3-oxazol-2-yl)-4,4a,5,6,8,8a-hexahydropyrano[3,4-d][1,3]thiazin-2-amine]",,1400 nM,,6 nM
"NC1=N[C@@]2(c3ccc(F)cc3F)CO[C@@H](c3ncc(F)cn3)C[C@H]2CS1 [Example 23, (4aR,6R,8aS)-8a-(2,4-difluorophenyl)-6-(5-fluoropyrimidin-2-yl)-4,4a,5,6,8,8a-hexahydropyrano[3,4-d][1,3]thiazin-2-amine]",,,161 nM,10 nM
